The values that follow come from US12624018B1, “Inhibitors of RIPK2 and medical uses thereof” (Odyssey Therapeutics, Inc., priority 2022, dated 2026).

pIC50: −log10 of the molar value.

In experiment [1] the target is T1, RIPK2 enzyme (Homo sapiens, UniProt O43353).
T1 construct: purchased Carna 09-128
Briefly: RIPK2 inhibition (ADP-Glo Kinase Assay). It counts as biochemical. The settings on record: RIPK2 5 nM, ATP 150 μM, MBP substrate, read-out: RIPK2 IC50. The procedure, abridged:
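Swine MBP substrate; compound and 5 nM RIPK2 first mixed for 30 min at room temperature; buffer pH 7.5 HEPES 50 mM with 10 mM MgCl2, 2 mM DTT, 1 mM EGTA, Brij-35, BSA.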
In general terms: In ADP-Glo the light output rises with the ADP produced.

Experiment [2] relates to human NOD2 signaling. The experiment can be described thus: Inhibition of human NOD2 signaling in HEK-Blue-hNOD2 cells (L18-MDP stimulated, SEAP reporter). It counts as cell-based. As to conditions: Homo sapiens, HEK-Blue hNOD2, HEK-Blue-hNOD2 cells, NOD2 ligand stimulation, SEAP reporter; read-out: hNOD2 IC50. The gist of the method:
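Read-out is SEAP absorbance at 620 nm after 3 h QUANTI-Blue development of supernatant from HEK293 cells carrying NOD2 and a SEAP reporter (12500/well). Cells got compound (10 points, 3-fold dilutions) and 0.5 ng/mL L18-MDP for 24 h at 37 °C; percent inhibition vs stimulated/unstimulated controls, 4-parameter IC50.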

T1 sequence (O43353 1-299 limits assumed): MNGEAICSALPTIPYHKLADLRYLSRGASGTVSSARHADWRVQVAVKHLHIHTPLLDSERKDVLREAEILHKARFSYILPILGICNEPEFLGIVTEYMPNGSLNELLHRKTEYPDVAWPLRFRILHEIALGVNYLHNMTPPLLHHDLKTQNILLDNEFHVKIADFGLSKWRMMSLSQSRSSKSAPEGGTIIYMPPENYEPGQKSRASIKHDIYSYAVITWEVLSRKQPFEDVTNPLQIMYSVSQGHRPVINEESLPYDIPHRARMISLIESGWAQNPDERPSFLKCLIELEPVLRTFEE

Broadly, the pIC50 is the negative decadic logarithm of the IC50, by convention in mol/L. For the compound `CNC(=O)C(F)(F)c1ccc2nccc(Oc3cc(F)c(CC(=O)Nc4cnn(C(C)(C)C)c4)cc3C)c2c1` [Compound 573, 2-(4-(4-(2-((1-(tert-butyl)-1H-pyrazol-4-yl)amino)-2-oxoethyl)-5-fluoro-2-methylphenoxy)quinolin-6-yl)-2,2-difluoro-N-methylacetamide], the negative logarithm of the IC50 (pIC50) in experiment [1] was over 8.60; in experiment [2], 9.00.

As for `[2H]C([2H])([2H])NC(=O)c1ccc2nccc(Oc3ccc(CC(=O)Nc4cnn(C(C)(C)C)c4)cc3C(F)F)c2c1` [Compound 574, 4-(4-(2-((1-(tert-butyl)-1H-pyrazol-4-yl)amino)-2-oxoethyl)-2-(difluoromethyl)phenoxy)-N-(methyl-d3)quinoline-6-carboxamide], the figures for the negative logarithm of the IC50 (pIC50) in experiment [1] and in experiment [2] were over 8.60 and 8.49, respectively.

On to `CC(C)(C)n1cc(NC(=O)Cc2ccc(Oc3ccnc4cc(F)c(C(N)=O)cc34)c(C(F)F)c2)cn1` [Compound 575, 4-(4-(2-((1-(tert-butyl)-1H-pyrazol-4-yl)amino)-2-oxoethyl)-2-(difluoromethyl)phenoxy)-7-fluoroquinoline-6-carboxamide], for which the pIC50 is over 8.60 in experiment [1] and 8.66 in experiment [2].

As for `CNC(=O)c1cc2c(Oc3ccc(CC(=O)Nc4cnn(C(C)(C)C)c4)cc3C(F)F)ccnc2cc1F` [Compound 576, 4-(4-(2-((1-(tert-butyl)-1H-pyrazol-4-yl)amino)-2-oxoethyl)-2-(difluoromethyl)phenoxy)-7-fluoro-N-methylquinoline-6-carboxamide], the pIC50 in experiment [1] is over 8.60; in experiment [2], 8.28.

For `[2H]C([2H])([2H])NC(=O)c1cc2c(Oc3ccc(CC(=O)Nc4cnn(C(C)(C)C)c4)cc3C(F)F)ccnc2cc1F` [Compound 577, 4-(4-(2-((1-(tert-butyl)-1H-pyrazol-4-yl)amino)-2-oxoethyl)-2-(difluoromethyl)phenoxy)-7-fluoro-N-(methyl-d3)quinoline-6-carboxamide], the negative-log IC50 (pIC50) is over 8.60 in experiment [1] and 8.70 in experiment [2].

Consider `COc1cc2nccc(Oc3ccc(CC(=O)Nc4cnn(C(C)(C)C)c4)cc3C(F)F)c2cc1C(N)=O` [Compound 578, 4-(4-(2-((1-(tert-butyl)-1H-pyrazol-4-yl)amino)-2-oxoethyl)-2-(difluoromethyl)phenoxy)-7-methoxy-quinoline-6-carboxamide], for which the pIC50 was over 8.60 in experiment [1] and 9.15 in experiment [2].

For the compound `CNC(=O)c1cc2c(Oc3ccc(CC(=O)Nc4cnn(C(C)(C)C)c4)cc3C(F)F)ccnc2cc1OC` [Compound 579, 4-(4-(2-((1-(tert-butyl)-1H-pyrazol-4-yl)amino)-2-oxoethyl)-2-(difluoromethyl)phenoxy)-7-methoxy-N-methylquinoline-6-carboxamide], the pIC50 is over 8.60 in experiment [1] and 9.10 in experiment [2].

For the compound `[2H]C([2H])([2H])NC(=O)c1cc2c(Oc3ccc(CC(=O)Nc4cnn(C(C)(C)C)c4)cc3C(F)F)ccnc2cc1OC` [Compound 580, 4-(4-(2-((1-(tert-butyl)-1H-pyrazol-4-yl)amino)-2-oxoethyl)-2-(difluoromethyl)phenoxy)-7-methoxy-N-(methyl-d3)quinoline-6-carboxamide], the negative logarithm of the IC50 (pIC50) in experiment [1] was over 8.60; in experiment [2], 8.92.

Consider `[2H]C([2H])([2H])NC(=O)c1cc2c(Oc3c(C)cc(CC(=O)Nc4cnn(C(C)(C)C)c4)cc3Cl)ccnc2cc1F` [Compound 586, 4-(4-(2-((1-(tert-butyl)-1H-pyrazol-4-yl)amino)-2-oxoethyl)-2-chloro-6-methylphenoxy)-7-fluoro-N-(methyl-d3)quinoline-6-carboxamide], for which the pIC50 in experiment [1] is over 8.60; in experiment [2], 9.22.

As to `Cc1cc(CC(=O)Nc2cnn(C34CC(C3)C4)c2)cc(C)c1Oc1ccnc2ccc(C(N)=O)cc12` [Compound 587, 4-(4-(2-((1-(bicyclo[1.1.1]pentan-1-yl)-1H-pyrazol-4-yl)amino)-2-oxoethyl)-2,6-dimethylphenoxy)quinoline-6-carboxamide], the pIC50 is over 8.60 in experiment [1] and 7.54 in experiment [2].
